Experimental data as given in the supplement of paper PMC10307832.

Tests used:
Test in all cases: relative viability (nuclei count vs DMSO), 5 days (fraction); higher = more cells survive
Erlotinib + Pemetrexed = compound: C#Cc1cccc(Nc2ncnc3cc(OCCOC)c(OCCOC)cc23)c1 [Erlotinib] + Nc1nc2[nH]cc(CCc3ccc(C(=O)N[C@@H](CCC(=O)O)C(=O)O)cc3)c2c(=O)[nH]1 [Pemetrexed] (partner 0.2 µM)
Method in brief: (§1)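 The day after seeding in 1536-well plates, lung cancer cell lines were treated by pin tool with a single drug, or with a fixed anchor-drug dose together with five library-drug doses (not always all listed) in √10 steps. After 5 days, a combined fix-and-stain solution (final 0.05% Triton X-100, 1% formaldehyde, 1 ug/ml Hoechst) was added. Nuclei counted on 4× images gave relative viability as treated counts over vehicle counts, reported as the median of duplicate plates.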

AT9283 + Tozasertib = compound: O=C(Nc1c[nH]nc1-c1nc2ccc(CN3CCOCC3)cc2[nH]1)NC1CC1 [AT9283] + Cc1cc(Nc2cc(N3CCN(C)CC3)nc(Sc3ccc(NC(=O)C4CC4)cc3)n2)n[nH]1 [Tozasertib] (partner 0.1 µM)
Method in brief: as §1

AT9283 + Pemetrexed = compound: O=C(Nc1c[nH]nc1-c1nc2ccc(CN3CCOCC3)cc2[nH]1)NC1CC1 [AT9283] + Nc1nc2[nH]cc(CCc3ccc(C(=O)N[C@@H](CCC(=O)O)C(=O)O)cc3)c2c(=O)[nH]1 [Pemetrexed] (partner 0.2 µM)
Method in brief: as §1

AT9283 + Vorinostat = compound: O=C(Nc1c[nH]nc1-c1nc2ccc(CN3CCOCC3)cc2[nH]1)NC1CC1 [AT9283] + O=C(CCCCCCC(=O)Nc1ccccc1)NO [Vorinostat] (partner 1 µM)
Method in brief: as §1

Erlotinib + Foretinib = compound: C#Cc1cccc(Nc2ncnc3cc(OCCOC)c(OCCOC)cc23)c1 [Erlotinib] + COc1cc2c(Oc3ccc(NC(=O)C4(C(=O)Nc5ccc(F)cc5)CC4)cc3F)ccnc2cc1OCCCN1CCOCC1 [Foretinib] (partner 0.25 µM)
Method in brief: as §1

Row | Cell Line | relative viability (Erlotinib + Pemetrexed; first compound 0.02 µM) | relative viability (Erlotinib + Pemetrexed; first compound 0.2 µM) | relative viability (Erlotinib + Pemetrexed; first compound 0.6325 µM) | relative viability (Erlotinib + Pemetrexed; first compound 2 µM) | relative viability (AT9283 + Tozasertib; first compound 0.003 µM) | relative viability (AT9283 + Tozasertib; first compound 0.03 µM) | relative viability (AT9283 + Tozasertib; first compound 0.09487 µM) | relative viability (AT9283 + Tozasertib; first compound 0.3 µM) | relative viability (AT9283 + Pemetrexed; first compound 0.003 µM) | relative viability (AT9283 + Pemetrexed; first compound 0.03 µM) | relative viability (AT9283 + Pemetrexed; first compound 0.09487 µM) | relative viability (AT9283 + Pemetrexed; first compound 0.3 µM) | relative viability (AT9283 + Vorinostat; first compound 0.003 µM) | relative viability (AT9283 + Vorinostat; first compound 0.03 µM) | relative viability (AT9283 + Vorinostat; first compound 0.09487 µM) | relative viability (AT9283 + Vorinostat; first compound 0.3 µM) | relative viability (Erlotinib + Foretinib; first compound 0.02 µM) | relative viability (Erlotinib + Foretinib; first compound 0.2 µM) | relative viability (Erlotinib + Foretinib; first compound 0.6325 µM) | relative viability (Erlotinib + Foretinib; first compound 2 µM)
1 | H3255 | 0.528 | 0.387 | 0.383 | 0.233 | 0.664 | 0.358 | 0.2 | 0.161 | 0.544 | 0.553 | 0.46 | 0.238 | 0.818 | 0.907 | 0.733 | 0.298 | 0.808 | 0.624 | 0.472 | 0.171
2 | ABC-1 | – | – | – | – | 0.198 | 0.17 | 0.172 | 0.183 | – | – | – | – | 1.05 | 0.373 | 0.359 | 0.258 | 1.03 | 0.547 | 1.06 | 0.818
3 | NCI-H1299 | – | – | – | – | – | – | – | – | – | – | – | – | – | – | – | – | 1.11 | 1.08 | 1.16 | 1.07
4 | NCI-H1993 | 0.63 | 0.466 | 0.544 | 0.564 | 0.6 | 0.571 | 0.611 | 0.491 | 0.565 | 0.514 | 0.52 | 0.389 | 0.806 | 0.435 | 0.375 | 0.363 | 0.772 | 0.736 | 0.578 | 0.716
5 | LOU-NH91 | 0.448 | 0.393 | 0.414 | 0.371 | 0.61 | 0.391 | 0.373 | 0.388 | 0.406 | 0.385 | 0.331 | 0.351 | 0.905 | 0.552 | 0.449 | 0.432 | 0.519 | 0.524 | 0.585 | –
6 | LC-2-ad | 0.307 | 0.279 | 0.274 | 0.262 | 0.422 | 0.285 | 0.321 | 0.25 | 0.258 | 0.253 | 0.219 | 0.164 | 0.696 | 0.251 | 0.199 | 0.157 | 0.876 | 0.658 | 0.665 | 0.528
7 | HCC-15 | 0.241 | 0.225 | 0.249 | 0.215 | 0.25 | 0.134 | 0.126 | 0.0965 | 0.223 | 0.208 | 0.143 | 0.159 | 0.873 | 0.426 | 0.165 | 0.166 | 0.996 | 1.01 | 1.15 | 0.934
8 | NCI-H650 | 0.966 | 0.852 | 0.991 | 1 | 0.693 | 0.408 | 0.17 | 0.177 | 0.939 | 0.864 | 0.53 | 0.153 | 0.405 | 0.375 | 0.282 | 0.146 | 1.03 | 1.02 | 1.19 | 0.924
9 | NCI-H2009 | 1.07 | 0.999 | 1.01 | 1.04 | 0.737 | 0.514 | 0.399 | 0.226 | 1.03 | 0.983 | 0.713 | 0.243 | 0.742 | 0.674 | 0.29 | 0.147 | 1.28 | 1.24 | 1.36 | 1.23
10 | COR-L 105 | 0.967 | 0.835 | 0.535 | 0.352 | 0.384 | 0.318 | 0.283 | 0.288 | 1.08 | 0.699 | 0.341 | 0.422 | 0.839 | 0.343 | 0.383 | 0.321 | 0.81 | 0.461 | 0.487 | 0.248
11 | NCI-H1975 | 0.288 | 0.294 | 0.292 | 0.263 | 0.728 | 0.664 | 0.58 | 0.311 | 0.295 | 0.282 | 0.27 | 0.276 | 0.742 | 0.666 | 0.504 | 0.281 | 0.951 | 1.02 | – | 0.71
12 | NCI-H1734 | 0.45 | 0.39 | 0.4 | 0.397 | 0.255 | 0.249 | 0.233 | 0.186 | 0.384 | 0.404 | 0.326 | 0.228 | 0.757 | 0.305 | 0.259 | 0.237 | 0.789 | – | 0.921 | 0.768
13 | NCI-H838 | 0.263 | 0.253 | 0.233 | 0.266 | 0.274 | 0.271 | 0.216 | 0.24 | 0.227 | 0.21 | 0.182 | 0.153 | 0.68 | 0.221 | 0.194 | 0.24 | 1.14 | 0.992 | 1.09 | –
14 | LCLC-103H | 0.502 | 0.449 | 0.476 | 0.45 | 0.45 | 0.347 | 0.187 | 0.259 | 0.447 | 0.411 | 0.343 | 0.324 | 0.745 | 0.566 | 0.355 | 0.306 | 0.743 | 0.799 | 0.848 | 0.566
15 | NCI-H2023 | 0.226 | 0.211 | 0.174 | 0.184 | 0.388 | 0.232 | 0.19 | 0.18 | 0.214 | 0.199 | 0.126 | 0.102 | 0.527 | 0.344 | 0.149 | 0.144 | 0.754 | 0.607 | 0.589 | 0.406
16 | A-427 | 0.967 | 1.04 | 1.06 | 1.01 | 0.186 | 0.179 | 0.168 | 0.161 | 0.979 | 0.767 | 0.272 | 0.299 | 0.902 | 0.471 | 0.269 | 0.323 | 1.17 | 1.01 | 1.15 | 1.02
17 | SK-MES-1 | 1.07 | 0.519 | 0.545 | 0.418 | 1 | 0.679 | 0.254 | 0.125 | 1.07 | 0.843 | 0.429 | 0.218 | 1.19 | 1.03 | 0.304 | 0.154 | 1.03 | 0.635 | – | 0.357
